Laboratory results: PMC12771125, “Compounds Reducing Human Sperm Motility as Potential Nonhormonal Contraceptives Identified Using a High-Throughput Phenotypic Screening Platform” (ACS Omega, 2025)
Values after ≈ are worked out from the molar mass of the structure shown. Like-named read-outs stand apart in the source and are kept apart here.

How the values were obtained:
[1] = Aqueous solubility; format: physicochemical
[2] = system: HepG2 cells; experiment: HepG2 cytotoxicity assay (resazurin, 72 h); format: cell-based, human; details: Homo sapiens, HepG2, 72 h; read-out: HepG2 pEC50 (converted)
In short: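 HepG2 cells in MEM with glutamax and 10% FCS exposed to compounds for 72 h; resazurin (45 μM final) added for a further 4 h, fluorescence read at ex 528/em 590 nm. Data normalized to controls as % growth; pEC50 is the mean of duplicate curves.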

[3] = system: human sperm; experiment: Reduction of sperm motility (RSM) high-throughput phenotypic assay; format: cell-based; details: Homo sapiens, reduction of progressive sperm motility relative to control
In short: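 Pooled human sperm from at least 3 normozoospermic donors were prepared by discontinuous density gradient centrifugation and incubated for 3 h at 37 °C under noncapacitating conditions. About 10,000 spermatozoa (20 μL) were dispensed into each well of 384-well plates holding compound. A Yokogawa CV7000 recorded time-lapse images, and Trackpy tracking measured progressive motility as a percentage of in-plate DMSO controls.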

[4] = 10 min, 10 min incubation, reported <X (neg. log of top concentration) if largest reduction <70%, read-out: RSM pEC50 10 mins (converted)
[5] = 3 h incubation, reported <X if largest reduction <70%, read-out: RSM pEC50 3 hrs (converted)
[6] = 6 h incubation, reported <X if largest reduction <70%, read-out: RSM pEC50 6 hrs (converted)

SMILES | solubility [1] [µM] | EC50 [2] [µM] | EC50 [3, 4] [µM] | EC50 [3, 5] [µM] | EC50 [3, 6] [µM]
Cc1cc(Nc2ccccc2)n(-c2ccccc2)n1 [Compound 6c] | 81 (≈ 20.2 µg/mL) | > 100 | > 31.6 | > 31.6 | > 31.6
Cc1cc(C)nc(-n2nc(C)cc2NC(=O)c2ccccc2)n1 [Compound 6d] | 15 (≈ 4.61 µg/mL) | > 100 | > 31.6 | > 31.6 | > 31.6
Cc1cc(NC(=O)c2ccccc2)n(-c2ccccc2)n1 [Compound 6e] | 240 (≈ 66.6 µg/mL) | > 100 | > 31.6 | > 31.6 | > 31.6
c1ccc(-c2cc(N3CCCCC3)c3ccccc3n2)nc1 [Compound 7a, 4-(Piperidin-1-yl)-2-(pyridin-2-yl)quinoline] | 10 (≈ 2.89 µg/mL) | > 100 | > 25.1 | > 25.1 | 1.58
c1ccc(-c2cc(N3CCCCC3)c3ccccc3n2)cc1 [Compound 7b] | 0.6 (≈ 0.173 µg/mL) | > 100 | > 31.6 | > 31.6 | > 31.6
c1cncc(-c2cc(N3CCCCC3)c3ccccc3n2)c1 [Compound 7c] | 57 (≈ 16.5 µg/mL) | > 100 | > 31.6 | > 31.6 | > 31.6
c1ccc2c(N3CCCCC3)cc(N3CCOCC3)nc2c1 [Compound 7d] | 140 (≈ 41.6 µg/mL) | > 100 | > 31.6 | > 31.6 | > 31.6
c1ccc2c(N3CCCCC3)cc(N3CCCCC3)nc2c1 [Compound 7e] | 8.1 (≈ 2.39 µg/mL) | > 100 | > 31.6 | > 31.6 | > 31.6
c1ccc2c(N3CCCCC3)cc(N3CCCC3)nc2c1 [Compound 7f] | 220 (≈ 61.9 µg/mL) | 50.1 | > 31.6 | > 31.6 | > 31.6
CN1CCN(c2cc(N3CCCCC3)c3ccccc3n2)CC1 [Compound 7g] | 210 (≈ 65.2 µg/mL) | 50.1 | > 31.6 | > 31.6 | > 31.6
